Laboratory results: patent US20030022158A1, “Peptides from the TT virus sequence and monospecific antibodies binding to the TT virus” (priority 1999, published 2003)

Assays:
[1] = test system: human IgG antibodies in human serum samples; experiment: EIA of human antibody reactivities to overlapping synthetic peptides of TTV ORF1 and ORF2 (Tables 2 and 3); assay type: binding; details: for reactivity with serum samples from patients with TTV infection: eight samples with TTV infection; for optical density (OD) at 405 nm: serum diluted 1:100, OD over 0.500 considered positive
Summary of the method: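 Plates were coated 48 h with 18-mer peptides (8-residue overlap) at 10 μg/ml in carbonate buffer pH 9.6, then blocked 2 h at room temperature in PBS/1% BSA/2% goat serum/0.05% Tween 20. Sera were applied at 1:100, and bound IgG was detected with alkaline phosphatase anti-human IgG, read at 405 nm.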

[2] = test system: anti-TTV antibodies present in human serum; experiment: Inhibition of serum reactivity to plate-bound peptide by peptide in solution; assay type: binding; details: peptide SEQ ID NO: 1 on the microplate
[3] = test system: human antibodies in human serum samples; experiment: EIA reactivities of three human serum samples with deletion and alanine substitution analogues of SEQ ID NO: 1 (Table 6); assay type: binding; details: positive = more than 50% of the reactivity of the original peptide
Summary of the method: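 Plates coated 48 hours with synthetic peptides at 10 μg/ml in carbonate buffer pH 9.6, blocked, then incubated with human sera diluted 1:100. Bound human IgG detected with alkaline phosphatase anti-human IgG; OD read at 405 nm, mapping deletion and alanine-substitution analogues of SEQ ID NO: 1.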

Balb/c mice = experiment: Immunization of Balb/c mice with TTV peptide 35, anti-peptide antibody titers; assay type: in vivo, mouse; details: five Balb/c mice, 100 μg intra-peritoneally in complete Freund's adjuvant, booster week four
Method: A total of five Balb/c mice were immunized intra-peritoneally with 100 μg of TTV peptide 35 (SEQ ID NO: 1) emulsified 1:1 in complete Freund's adjuvant. Venous blood samples were obtained on weeks 2, 4, and 6. A booster dose of 100 μg in incomplete Freund's adjuvant was given on week four. […] The anti-peptide titers were 1:60 at week 4 and 1:2160 at week 6. […] The following section describes more on the production of antibodies specific for TTV.

[4] = test system: human antibodies in human serum samples P4, P6, P7; experiment: EIA reactivities of serial dilutions of three human serum samples with TTV peptide SEQ ID NO: 1 (Table 5); assay type: binding
Method: The EIAs used to identify which peptides interacted with human sera followed protocols known in the art. (See Zhang et al., J Gen Virol, 78:2735-2746 (1997), herein expressly incorporated by reference in its entirety). Briefly, microplates (Nunc, Denmark) were coated for 48 hours with synthetic peptides at a concentration of 10 μg/ml in 0.05M sodium carbonate buffer pH 9.6. […] Bound human IgG was detected by incubation with anti-human IgG antibodies conjugated to alkaline phosphatase (Sigma Chemicals, St. Louis, Mo.). The plates were developed by the addition of […] (Sigma) and the optical densities were determined at 405 nm.

## TATTTTYAYPGTNRPPV (Peptide Immunogen) [peptide 35, overlapping synthetic peptide of TTV ORF1]
[1]; EIA
  reactivity with serum samples from patients with TTV infection: reactive to most of the TTV infected serum samples
[1]; EIA, listed as TATTTTYAYPGTNRPPV
  reactivity with serum samples from patients with TTV infection: Every sample from patients with TTV infection was found to be reactive
[1]; human serum sample 1, negative for TTV DNA by PCR
  optical density (OD) at 405 nm: 0.18 OD
[1]; human serum sample 2, negative for TTV DNA by PCR
  optical density (OD) at 405 nm: 0.17 OD
[1]; human serum sample 3, negative for TTV DNA by PCR
  optical density (OD) at 405 nm: 0.27 OD
[1]; human serum sample 4, negative for TTV DNA by PCR
  optical density (OD) at 405 nm: 1.40 OD
[1]; human serum sample 5, negative for TTV DNA by PCR
  optical density (OD) at 405 nm: 0.25 OD
[1]; human serum sample 6, negative for TTV DNA by PCR
  optical density (OD) at 405 nm: 0.64 OD
[1]; human serum sample 7, negative for TTV DNA by PCR
  optical density (OD) at 405 nm: 2.10 OD
[1]; human serum sample 9, positive for TTV DNA by PCR
  optical density (OD) at 405 nm: 0.10 OD
[1]; human serum sample 11, negative for TTV DNA by PCR
  optical density (OD) at 405 nm: 0.64 OD
[1]; human serum sample 18, positive for TTV DNA by PCR
  optical density (OD) at 405 nm: 0.10 OD
[1]; human serum sample 36, positive for TTV DNA by PCR
  optical density (OD) at 405 nm: 1.22 OD
[1]; human serum sample 48, positive for TTV DNA by PCR
  optical density (OD) at 405 nm: 1.11 OD
[1]; human serum sample 98, positive for TTV DNA by PCR
  optical density (OD) at 405 nm: 0.05 OD
[1]; human serum sample 110, positive for TTV DNA by PCR
  optical density (OD) at 405 nm: 0.47 OD
[1]; human serum sample 155, positive for TTV DNA by PCR
  optical density (OD) at 405 nm: 0.95 OD
[1]; human serum sample 157, positive for TTV DNA by PCR
  optical density (OD) at 405 nm: 0.86 OD
[1]; tested human sera, EIA
  human reactivity to peptide (reactive peptides within ORF1): Reactive
[2]
  inhibition of serum reactivity to the peptide on the microplate by peptide in solution: inhibited
[3]; human serum sample P4
  OD at 405 nm, reactivity of human serum sample P4: 0.748 OD
[3]; human serum sample P7
  OD at 405 nm, reactivity of human serum sample P7: 1.659 OD
[3]; human serum sample P36
  OD at 405 nm, reactivity of human serum sample P36: 0.722 OD
Balb/c mice
  mice developing detectable peptide-specific antibodies: one developed detectable antibodies
[4]; human serum sample P4, dilution of serum sample 1:100
  OD at 405 nm: 1.285 OD
[4]; human serum sample P4, dilution of serum sample 1:200
  OD at 405 nm: 0.758 OD
[4]; human serum sample P4, dilution of serum sample 1:400
  OD at 405 nm: 0.411 OD
[4]; human serum sample P4, dilution of serum sample 1:800
  OD at 405 nm: 0.234 OD
[4]; human serum sample P4, dilution of serum sample 1:1600
  OD at 405 nm: 0.131 OD
[4]; human serum sample P4, dilution of serum sample 1:3200
  OD at 405 nm: 0.076 OD
[4]; human serum sample P4, dilution of serum sample 1:6400
  OD at 405 nm: 0.058 OD
[4]; human serum sample P4, dilution of serum sample 1:12800
  OD at 405 nm: 0.046 OD
[4]; human serum sample P6, dilution of serum sample 1:100
  OD at 405 nm: 0.687 OD
[4]; human serum sample P6, dilution of serum sample 1:200
  OD at 405 nm: 0.375 OD
[4]; human serum sample P6, dilution of serum sample 1:400
  OD at 405 nm: 0.19 OD
[4]; human serum sample P6, dilution of serum sample 1:800
  OD at 405 nm: 0.104 OD
[4]; human serum sample P6, dilution of serum sample 1:1600
  OD at 405 nm: 0.067 OD
[4]; human serum sample P6, dilution of serum sample 1:3200
  OD at 405 nm: 0.049 OD
[4]; human serum sample P6, dilution of serum sample 1:6400
  OD at 405 nm: 0.043 OD
[4]; human serum sample P6, dilution of serum sample 1:12800
  OD at 405 nm: 0.041 OD
[4]; human serum sample P7, dilution of serum sample 1:100
  OD at 405 nm: 1.782 OD
[4]; human serum sample P7, dilution of serum sample 1:200
  OD at 405 nm: 1.23 OD
[4]; human serum sample P7, dilution of serum sample 1:400
  OD at 405 nm: 0.79 OD
[4]; human serum sample P7, dilution of serum sample 1:800
  OD at 405 nm: 0.45 OD
[4]; human serum sample P7, dilution of serum sample 1:1600
  OD at 405 nm: 0.246 OD
[4]; human serum sample P7, dilution of serum sample 1:3200
  OD at 405 nm: 0.131 OD
[4]; human serum sample P7, dilution of serum sample 1:6400
  OD at 405 nm: 0.087 OD
[4]; human serum sample P7, dilution of serum sample 1:12800
  OD at 405 nm: 0.061 OD
[4]; serial dilutions of serum samples
  dependence of reactivity on serum dilution: dependent on the dilution of the serum samples
